Data reported in patent US20200337310A1, “Herbicidal Combinations” (UPL LTD, priority 2018, published 2020).

What was measured:
Experiment in all cases: Field trial, weed control burn down symptoms at 5 DAT
Details in all cases: field trial India, glufosinate ammonium 400, carfentrazone 10, imazethapyr 100 gm/ha
[1] = test system: Parthenium hysterophorus
[2] = test system: Trianthema monogyna
[3] = test system: Dinebra retroflexa
[4] = test system: Cyprus spp

SMILES	% Weed control Burn Down Symptoms Generation, Parthenium hysterophorus, Actual [1]	% Weed control Burn Down Symptoms Generation, Trianthema monogyna, Actual [2]	% Weed control Burn Down Symptoms Generation, Dinebra retroflexa, Actual [3]	% Weed control Burn Down Symptoms Generation, Cyprus spp, Actual [4]
CP(=O)(O)CCC(N)C(=O)O (racemic) [Glufosinate ammonium, (2RS)-2-amino-4-[hydroxy(methyl)phosphinoyl]butyric acid]	30%	25%	15%	5%
CCOC(=O)C(Cl)Cc1cc(-n2nc(C)n(C(F)F)c2=O)c(F)cc1Cl (racemic) [Carfentrazone, ethyl (RS)-2-chloro-3-{2-chloro-5-[4-(difluoromethyl)-4,5-dihydro-3-methyl-5-oxo-1H-1,2,4-triazol-1-yl]-4-fluorophenyl}propionate]	5%	70%	0%	60%
CCc1cnc(C2=NC(C)(C(C)C)C(=O)N2)c(C(=O)O)c1 (racemic) [Imazethapyr, 5-ethyl-2-[(RS)-4-isopropyl-4-methyl-5-oxo-2-imidazolin-2-yl]nicotinic acid]	5%	10%	0%	00%
